Legend:
[1] = system: Factor 11 mRNA; assay: Factor 11 mRNA in liver, FeCl3 induced venous thrombosis model vs Apixaban (Example 14); assay type: in vivo, BALB/c mice; details: for % inhibition of Factor 11 mRNA in liver relative to PBS control: FeCl3 VT model
Description: (§1) ISIS 404071 and Apixaban were evaluated in the FeCl3 induced VT mouse model. […] Two days after receiving the last dose of ISIS 404071, mice were anesthetized with 150 mg/kg ketamine mixed with 10 mg/kg xylazine administered by intraperitoneal injection. […] Twenty minutes after receiving Apixaban, mice were anesthetized with 150 mg/kg ketamine mixed with 10 mg/kg xylazine administered by intraperitoneal injection. […] Two days after the last dose of PBS, mice in both groups were anesthetized with 150 mg/kg ketamine mixed with 10 mg/kg xylazine administered by intraperitoneal injection. Thrombus formation was induced with FeCl3 in all of the mice except the first control group.
(§2) In mice undergoing FeCl3 treatment, thrombus formation was induced by applying a piece of filter paper (2×4 mm) pre-saturated with 10% FeCl3 solution directly on the vena cava. After 3 minutes of exposure, the filter paper was removed. Thirty minutes after the filter paper application, a fixed length of the vein containing the thrombus was dissected out for platelet analysis. Liver was collected for RNA analysis.
RNA was extracted from liver tissue for real-time PCR analysis of Factor 11. Results are presented as percent inhibition of Factor 11, relative to PBS control.

[2] = system: platelet factor-4 (PF-4); assay: Thrombus formation by PF-4 real-time PCR, FeCl3 induced venous thrombosis model vs Apixaban (Example 14); assay type: in vivo, BALB/c mice; details: for PF-4 in vena cava, percentage as compared to PBS controls (thrombus formation): + FeCl3
Description: as §1, §2
Real-time PCR quantification of platelet factor-4 (PF-4) was used to quantify platelets in the vena cava as a measure of thrombus formation. […] Results are presented as a percentage of PF-4 in ISIS 404071 or Apixaban treated mice, as compared to the two PBS-treated control groups.

[3] = design: species or system BALB/c mice; details: mouse, in vivo
Description: ISIS 404071 and Apixaban were evaluated in the tail bleeding model.
The saline filled tubes were weighed before and after bleeding.

[4] = system: blood coagulation; assay: PT and aPTT, combination with Apixaban (Example 20); assay type: in vivo, BALB/c mice
Description: PT and aPTT were measured using PPP from mice treated with ISIS 404071 in combination with Apixaban. In the first cohort, ISIS 404071 was administered subcutaneously to BALB/c mice at a dosage of 25 mg/kg twice a week for 3 weeks. Plasma was collected from these mice 5 days after receiving the last dose of ISIS 404071. In the second cohort, Apixaban was administered subcutaneously to BALB/c mice at a dosage of 6 mg/kg twice daily for three days. Plasma was collected from these mice 20 minutes after receiving the last dose of Apixaban. In the third cohort, ISIS 404071 was administered subcutaneously to BALB/c mice at a dosage of 20 mg/kg twice a week for 3 weeks, and Apixaban was administered subcutaneously at a dosage of 6 mg/kg twice daily on the last three days of ISIS 404071 treatment. Plasma was collected from these mice 20 minutes after receiving the last dose of Apixaban. In a fourth cohort, PBS was administered subcutaneously twice a week for three weeks, as a control. Plasma was collected 5 days after the last dose of PBS.
PT and aPTT values provided in Table 32 are reported as International Normalized Ratio (INR) values. […] However, Apixaban and Apixaban combined with ISIS 404071 increased PT. Also shown in Table 32, Apixaban, ISIS 404071, and ISIS 404071 combined with Apixaban increase aPTT.

[5] = Tail bleeding assay, Apixaban in combination with PLAVIX (Example 28); assay type: in vivo, BALB/c mice
Description: Five groups of eight BALB/c mice were treated with 0 mg/kg, 6.25 mg/kg, 12.50 mg/kg, 25.00 mg/kg, or 50.00 mg/kg of PLAVIX. Mice were given two doses of PLAVIX on day one and one dose of PLAVIX on day two, two hours before bleeding. An additional five groups of eight BALB/c mice were treated with 0 mg/kg, 6.25 mg/kg, 12.50 mg/kg, 25.00 mg/kg, or 50.00 mg/kg of PLAVIX. Mice were given two doses of PLAVIX on day one and one dose of PLAVIX on day two, two hours before bleeding. […] Two hours after receiving their final treatment, mice were placed in a tail bleeding chamber.

[6] = apixaban added to aspirin and to aspirin plus clopidogrel, compared with aspirin alone and aspirin plus clopidogrel (Wong); cited from earlier work
[7] = system: platelet factor-4 (PF-4); assay: Thrombus formation by PF-4, FeCl3 induced VT model, combination with PLAVIX (Example 26); assay type: in vivo, BALB/c mice; details: for PF-4 mRNA, percent as compared to the PBS + FeCl3 control (thrombus formation): ISIS 404071 0 mg/kg
Description: The combination of ISIS 404071 and PLAVIX was evaluated in the FeCl3 induced VT mouse model. Four groups of eight BALB/c mice, weighing approximately 25 g each, were treated with 6.25 mg/kg, 12.50 mg/kg, 25.00 mg/kg, or 50.00 mg/kg of PLAVIX. Mice were given two doses of PLAVIX on day one and one dose of PLAVIX on day two, two hours before surgery.
After the last dose of ISIS 404071, mice were treated with 6.25 mg/kg, 12.50 mg/kg, 25.00 mg/kg, or 50.00 mg/kg of PLAVIX. Two doses of PLAVIX were administered to the mice on day one and one dose of PLAVIX was administered on day two, two hours before surgery.
Two control groups of eight BALB/c mice, weighing approximately 25 g each, were not treated with ISIS 404071 or PLAVIX. […] Thrombus formation was induced with FeCl3 in all of the mice except the first […] control groups. All mice were anesthetized with 150 mg/kg of ketamine mixed with 10 mg/kg of xylazine administered by intraperitoneal injection.
After 3 minutes of exposure, the filter paper was removed. Thirty minutes after the filter paper application, a fixed length of the vein containing the thrombus was dissected out for platelet analysis.
Real-time PCR quantification of PF-4 was used to quantify platelets in the vena cava as a measure of thrombus formation. […] Therefore, the combination of anti-platelet therapy with Factor 11 ASO increases antithrombotic activity. Data is presented as percent of PF-4 mRNA as compared to the PBS+ FeCl3 control.

[8] = Tail bleeding assay, combination with PLAVIX (Example 27); assay type: in vivo, BALB/c mice; details: ISIS 404071 0
Description: ISIS 404071 was administered subcutaneously at a dosage of 20 mg/kg twice a week for 3 weeks to 5 groups of eight BALB/c mice. After the last dose of ISIS 404071, mice were treated with 0 mg/kg, 6.25 mg/kg, 12.50 mg/kg, 25.00 mg/kg, or 50.00 mg/kg of PLAVIX. Two doses of PLAVIX were administered to the mice on day one and one dose of PLAVIX was administered on day two, two hours before bleeding.
Two hours after receiving their final treatment, mice were placed in a tail bleeding chamber. […] The blood was collected for the course of 40 minutes.

[9] = Apixaban 0.5 mg/kg subcutaneously one time
[10] = Apixaban 2 mg/kg subcutaneously one time
[11] = Apixaban 5 mg/kg subcutaneously one time
[12] = Apixaban 10 mg/kg subcutaneously one time
[13] = Apixaban 20 mg/kg subcutaneously one time
[14] = BALB/c mice, ISIS 404071 25 or 20 mg/kg, Apixaban 6 mg/kg twice daily
[15] = ISIS 404071 alone 25 mg/kg s.c. twice a week for 3 weeks, Apixaban alone 6 mg/kg s.c. twice daily for three days, combination 20 mg/kg + 6 mg/kg

COc1ccc(-n2nc(C(N)=O)c3c2C(=O)N(c2ccc(N4CCCCC4=O)cc2)CC3)cc1 [Apixaban, reference compound]
% inhibition of Factor 11 mRNA in liver relative to PBS control [1, 9]: 5% | % inhibition of Factor 11 mRNA in liver relative to PBS control [1, 10]: 8% | % inhibition of Factor 11 mRNA in liver relative to PBS control [1, 11]: 12% | % inhibition of Factor 11 mRNA in liver relative to PBS control [1, 12]: 2% | % inhibition of Factor 11 mRNA in liver relative to PBS control [1, 13]: 0% | Factor 11 mRNA in liver vs PBS control ([1]; FeCl3 induced VT model, ISIS 404071 1.25-40 mg/kg, Apixaban 0.5-5 mg/kg s.c. once): did not result in significant reduction of Factor 11 | PF-4 in vena cava, percentage as compared to PBS controls (thrombus formation) [2, 9]: 67% | PF-4 in vena cava, percentage as compared to PBS controls (thrombus formation) [2, 10]: 46% | PF-4 in vena cava, percentage as compared to PBS controls (thrombus formation) [2, 11]: 15% | PF-4 in vena cava, percentage as compared to PBS controls (thrombus formation) [2, 12]: 5% | PF-4 in vena cava, percentage as compared to PBS controls (thrombus formation) [2, 13]: 26% | PF-4 in vena cava as measure of thrombus formation ([2]; FeCl3 induced VT model, vs PBS control): also resulted in reduction of PF-4 | bleeding in tail bleeding assay [3]: did increase bleeding | PT [4, 14]: increased PT | aPTT [4, 14]: increase aPTT | PT INR [4, 15]: 3.25 INR | aPTT INR [4, 15]: 1.44 INR | bleeding risk in tail bleeding assay ([5]; Apixaban 0.5 mg/kg i.p. in combination with anti-platelet therapy (PLAVIX 0-50 mg/kg)): increases bleeding risk | Blood (tail bleeding, collected for 40 minutes) ([5]; Apixaban 0.5 mg/kg intraperitoneally 20 minutes before bleeding, PLAVIX 0): 0.004 g | bleeding time [6]: significant increase in bleeding time

COC(=O)[C@H](c1ccccc1Cl)N1CCc2sccc2C1 [PLAVIX, clopidogrel]
PF-4 in vena cava as measure of thrombus formation ([7]; FeCl3 induced VT model, PLAVIX 6.25-50 mg/kg, ISIS 404071 20 mg/kg): resulted in a reduction of PF-4 | PF-4 mRNA, percent as compared to the PBS + FeCl3 control (thrombus formation) ([7]; PLAVIX 6.25 mg/kg): 59% | PF-4 mRNA, percent as compared to the PBS + FeCl3 control (thrombus formation) ([7]; PLAVIX 12.50 mg/kg): 37% | PF-4 mRNA, percent as compared to the PBS + FeCl3 control (thrombus formation) ([7]; PLAVIX 50.00 mg/kg): 30% | PF-4 mRNA, percent as compared to the PBS + FeCl3 control (thrombus formation) ([7]; PLAVIX […]): 30% | Blood (tail bleeding, collected for 40 minutes) ([8]; PLAVIX 6.25 mg/kg): 0.075 g | Blood (tail bleeding, collected for 40 minutes) ([8]; PLAVIX 12.50 mg/kg): 0.205 g | Blood (tail bleeding, collected for 40 minutes) ([8]; PLAVIX 50.00 mg/kg): 0.628 g

From patent US20230263822A1, “MODULATION OF FACTOR 11 EXPRESSION” (Ionis Pharmaceuticals, Inc., priority 2008, published 2023)
